Reference: PMC4643811, “Structural basis of Lewis^b antigen binding by the Helicobacter pylori adhesin BabA” (Science Advances, 2015)
Read-outs that look alike come from different tables or passages of the source.

Tests used:
[1] = biological target: T1, BabA (extracellular domain, H. pylori J99) (Helicobacter pylori, UniProt Q9ZKV2); experiment: isothermal titration calorimetry; format: binding
T1 construct: N-terminal extracellular domain, amino acids 10-527 of mature BabA; three C-terminal tags (6xLys-c-Myc-6xHis) kept; periplasmic expression in E. coli XL10 Gold; beta-barrel membrane domain absent
T1 sequence (Q9ZKV2 entry or part of it): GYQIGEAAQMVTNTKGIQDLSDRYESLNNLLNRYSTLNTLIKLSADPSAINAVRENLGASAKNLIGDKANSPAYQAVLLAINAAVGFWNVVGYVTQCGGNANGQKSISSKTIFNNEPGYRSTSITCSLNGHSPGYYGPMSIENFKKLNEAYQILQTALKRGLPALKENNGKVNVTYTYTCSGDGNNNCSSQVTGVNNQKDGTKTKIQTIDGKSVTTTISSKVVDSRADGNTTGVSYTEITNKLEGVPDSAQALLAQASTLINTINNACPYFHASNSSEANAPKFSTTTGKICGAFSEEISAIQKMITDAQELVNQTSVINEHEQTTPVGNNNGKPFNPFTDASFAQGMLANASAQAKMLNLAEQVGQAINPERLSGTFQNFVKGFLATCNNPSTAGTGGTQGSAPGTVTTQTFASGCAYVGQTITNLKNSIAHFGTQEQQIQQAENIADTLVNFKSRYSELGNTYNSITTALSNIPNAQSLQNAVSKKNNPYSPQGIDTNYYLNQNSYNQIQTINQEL

[2] = biological target: BabA (extracellular domain, H. pylori J99) (Helicobacter pylori, UniProt Q9ZKV2, N226A); details: pH 7.4, 25°C; protein 0.25 mM, glycan 10 mM
Sequence of BabA (extracellular domain, H. pylori J99) (Helicobacter pylori, UniProt Q9ZKV2, N226A) (Q9ZKV2 30-547 N226A): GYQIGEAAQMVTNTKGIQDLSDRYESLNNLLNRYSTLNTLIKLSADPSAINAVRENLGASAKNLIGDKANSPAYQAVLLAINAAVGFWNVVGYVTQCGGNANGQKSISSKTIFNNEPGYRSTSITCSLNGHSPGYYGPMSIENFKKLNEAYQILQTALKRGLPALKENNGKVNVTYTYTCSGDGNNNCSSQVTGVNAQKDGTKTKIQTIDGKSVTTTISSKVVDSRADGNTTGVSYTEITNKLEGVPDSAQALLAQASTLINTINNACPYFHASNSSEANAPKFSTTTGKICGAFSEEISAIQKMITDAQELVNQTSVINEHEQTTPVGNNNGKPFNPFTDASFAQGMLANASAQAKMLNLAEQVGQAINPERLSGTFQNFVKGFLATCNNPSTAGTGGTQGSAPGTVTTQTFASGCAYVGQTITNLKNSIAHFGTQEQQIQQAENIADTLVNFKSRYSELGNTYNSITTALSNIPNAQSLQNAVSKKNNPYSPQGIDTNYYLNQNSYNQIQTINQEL

| Molecule | Kd ([1]; pH 7.4, 20 mM tris-Cl, 300 mM NaCl, 25°C, single site) [µM] | Kd [2] [µM] | Kd ([1]; pH 7.4, 25°C, protein 0.25 mM, glycan 10 mM, read-out: KD) [µM] |
| --- | --- | --- | --- |
| CC(=O)N[C@H]1[C@H](O[C@H]2[C@@H](O)[C@@H](CO)O[C@@H](O[C@H]3[C@H](O)[C@@H](O)C(O)O[C@@H]3CO)[C@@H]2O)O[C@H](CO)[C@@H](O[C@@H]2O[C@@H](C)[C@@H](O)[C@@H](O)[C@@H]2O)[C@@H]1O[C@@H]1O[C@H](CO)[C@H](O)[C@H](O)[C@H]1O[C@@H]1O[C@@H](C)[C@@H](O)[C@@H](O)[C@@H]1O (stereo partly drawn) [Le^b] | ~252 | ~582 |  |
| H-1 antigen |  |  | ~617 |
